Data as given in patent EP1077677B1, “PROCESS FOR THE MANUFACTURE OF A BIOLOGICALLY ACTIVE COMPOSITION” (JAGOTEC AG, priority 1998, dated 1999).
≈ marks a conversion by molar mass, not a printed value.

Assay: physchem
Format: physicochemical
Conditions: water
Protocol: In order to determine its water solubility, an excess of metronidazole was added to water, after which the mixture was stirred for 3 days at room temperature.

solubility thermodynamic at 72 h: 8200 µg/mL (≈ 47.9 mM)
Compound: Cc1ncc([N+](=O)[O-])n1CCO [metronidazole]
